The target of assay [1] is T1, Kynurenine/alpha-aminoadipate aminotransferase, mitochondrial (Homo sapiens, UniProt Q8N5Z0). As to the kind of experiment: Reversible inhibition of recombinant human KAT2 assessed as reduction in kynurenic acid formation using L-kynurenine as substrate by fluorescence assay.
Target sequence in this assay (Q8N5Z0 whole entry): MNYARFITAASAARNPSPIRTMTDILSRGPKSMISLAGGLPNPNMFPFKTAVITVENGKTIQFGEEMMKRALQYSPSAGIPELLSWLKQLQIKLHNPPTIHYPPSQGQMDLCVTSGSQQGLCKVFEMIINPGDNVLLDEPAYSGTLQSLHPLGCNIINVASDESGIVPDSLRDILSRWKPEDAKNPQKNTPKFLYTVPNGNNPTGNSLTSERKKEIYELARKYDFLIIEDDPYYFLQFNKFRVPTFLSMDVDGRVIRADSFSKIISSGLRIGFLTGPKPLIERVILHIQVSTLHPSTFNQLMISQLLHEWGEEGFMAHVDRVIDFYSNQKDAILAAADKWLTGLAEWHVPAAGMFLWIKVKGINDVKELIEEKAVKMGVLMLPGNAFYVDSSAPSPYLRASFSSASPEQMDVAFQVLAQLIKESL
In assay [2] the target is T1, Kynurenine/alpha-aminoadipate aminotransferase, mitochondrial. As to the kind of experiment: Reversible inhibition of recombinant human KAT2 assessed as reduction in kynurenic acid formation at 50 uM using L-kynurenine as substrate by fluorescence assay relative to control.
Target sequence in this assay (Q8N5Z0 30-425 limits assumed): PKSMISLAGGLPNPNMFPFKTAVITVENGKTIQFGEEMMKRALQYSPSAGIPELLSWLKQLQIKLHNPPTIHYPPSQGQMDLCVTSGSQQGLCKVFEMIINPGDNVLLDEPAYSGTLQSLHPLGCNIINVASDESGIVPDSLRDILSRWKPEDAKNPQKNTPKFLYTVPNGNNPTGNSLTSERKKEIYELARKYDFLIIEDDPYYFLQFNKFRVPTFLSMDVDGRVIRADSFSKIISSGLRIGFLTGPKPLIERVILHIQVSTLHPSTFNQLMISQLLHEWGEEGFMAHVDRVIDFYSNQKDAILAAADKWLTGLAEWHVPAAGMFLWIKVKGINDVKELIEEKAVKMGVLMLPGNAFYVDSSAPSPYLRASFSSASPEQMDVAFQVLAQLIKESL
For assay [3] the target is unchanged. As to the kind of experiment: Binding affinity to recombinant human KAT2 assessed as change in temperature by thermal shift assay.
Target sequence in this assay (Q8N5Z0 30-425 limits assumed): as above

Each structure is given as a SMILES string. Bounds are passed on as bounds.

Broadly, the IC50 is the point on the concentration scale where inhibition reaches its midpoint. By inhibition is commonly meant how much of the control response was suppressed. Consider `O=S(=O)(Nc1nnc(C2(c3ccccc3)CC2)s1)c1cc(F)cc(F)c1`, for which the half-maximal inhibitory concentration (IC50) in assay [1] was found to be 16 µM. Also, the inhibition in assay [2] turned out to be 88%. For the same molecule, the deltaT in assay [3] worked out at 1.7 °C.
Consider `O=S(=O)(Nc1nnc(CC2CCCC2)o1)c1ccccc1`, for which the inhibition in assay [2] came out at 47%.
In the case of `O=C1CCC2(CCCN(C(=O)Nc3ccc(F)c(Cl)c3)C2)CN1CC1CC1` (stereo in doubt; 10 E2), in assay [1], the IC50 amounted to 96.5 µM.
Still for that read-out and setting: the figure for `CCc1cccc(NC(=O)N2CCCC3(CCC(=O)N(CCC(C)C)C3)C2)c1` (stereo in doubt; 7 E1) is 4.4 µM; for `COc1ccc(NC(=O)N2CCCC3(CCC(=O)N(C4CC4)C3)C2)cc1` (stereo in doubt; 11 E1) it is more than 100 µM; for `CC(C)C(Cc1nnc(NS(=O)(=O)c2cc(F)cc(F)c2)s1)c1cccc(F)c1` (stereo unspecified) it is 1.6 µM.
Same read-out and setting: the figure for `Cc1ccc(NC(=O)N2CCCC3(CCC(=O)N(CCC(C)C)C3)C2)cc1Cl` (racemic) is 0.81 µM.
For the molecule `O=C1CCC2(CCCN(C(=O)Nc3ccc(F)c(Cl)c3)C2)CN1CC1CC1` (stereo in doubt; 10 E1), the IC50 in assay [1] was found to be 2.4 µM.
Consider `Cc1cc(C)cc(NC(=O)N2CCCC3(CCC(=O)N(C4CC4)C3)C2)c1` (stereo in doubt; 9 E1), for which the 50% inhibitory concentration (IC50) in assay [1] turned out to be 4.5 µM.
Consider `O=S(=O)(NC1CCNC1)c1ccc(Cl)cc1C(F)(F)F` (stereo unspecified), for which the inhibition in assay [2] came to 57%.
As to `COc1ccc(NC(=O)N2CCCC3(CCC(=O)N(C4CC4)C3)C2)cc1` (stereo in doubt; 11 E2), in assay [1], the IC50 is 15.5 µM.
Still for that read-out and setting: the result for `CCc1cccc(NC(=O)N2CCCC3(CCC(=O)N(CCC(C)C)C3)C2)c1` (stereo in doubt; 7 E2) reads 97 µM.
`Cc1cc(C)cc(NC(=O)N2CCCC3(CCC(=O)N(C4CC4)C3)C2)c1` (stereo in doubt; 9 E2): in assay [1], the IC50 turned out to be 74.9 µM.
The same measure, in the same setting: the figure for `CCc1cccc(NC(=O)N2CCCC3(CCC(=O)N(CCC(C)C)C3)C2)c1` (racemic) is 8 µM.
